Results taken from US20210322462A1, “WOUND PREVENTION AND/OR TREATMENT AND RELATED COMPOUNDS, MATRICES, COMPOSITIONS, METHODS AND SYSTEMS” (CALIFORNIA INSTITUTE OF TECHNOLOGY, priority 2020, published 2021).

Columns and labels:
[1] = test system: Pseudomonas aeruginosa ΔhflC; test: Chlorate sensitivity assay and chlorate quantification, ΔhflC versus wild type; assay type: cell-based; conditions: 1 mM chlorate
Protocol: (§1) Chlorate sensitivity assay was then performed. In particular, to test mutants for chlorate sensitivity, overnight cultures of each strain were grown aerobically in LB with 40 mM KNO3. Cultures were pelleted, washed twice with LB to remove residual KNO3, and resuspended in LB without (control) or with 1 mM NaClO3 to final OD500=1. Cultures were moved to the anaerobic glove box to adapt to anoxia.
[…] At 72 hours, part of the culture was also pelleted, and supernatant collected for quantifying chlorate concentrations via ion chromatography.
(§2) Chlorate quantification was then performed via ion chromatography. In particular, culture samples were pelleted, and the supernatant was diluted 1:10 in dH2O in a 0.5 mL vial (Thermo Fisher Scientific catalog numbers 038010 and 038011). Chlorate concentrations were determined using a Dionex ICS 2000 ion chromatography as described previously (Spero and Newman 2018).) at the Environmental Analysis Center at Caltech.

[2] = test system: Pseudomonas aeruginosa ΔnarGHJI; test: Chlorate sensitivity assay and chlorate quantification, ΔnarGHJI versus wild type; assay type: cell-based; conditions: 1 mM chlorate, 72 hours
Protocol: as §1
Cultures were incubated at 37° C. for 72 hours, after which they were removed from the anaerobic glove box to determine viable cell counts for calculating percent survival as described previously) (Spero and Newman 2018).). At 72 hours, part of the culture was also pelleted, and supernatant collected for quantifying chlorate concentrations via ion chromatography.
as §2

[O-][Cl+2]([O-])O [chlorate, NaClO3]
chlorate resistance (% survival) relative to WT ([1]; over the course of 48 hours (FIG. 3A)): more resistant to chlorate than WT
Nar activity, chlorate reduction (% chlorate remaining) relative to WT ([1]; over the course of 48 hours (FIG. 3B)): lower rates of chlorate reduction
chlorate resistance (% survival) relative to WT ([2]; anaerobic, 37° C. (FIG. 2A)): more resistant to chlorate than WT
Nar activity, chlorate reduction (% chlorate remaining) relative to WT ([2]; ion chromatography (FIG. 2B)): lower rates of chlorate reduction
